In patent US9499493B2, “2,4-pyrimidinediamine compounds and their uses” (Rigel Pharmaceuticals, Inc., priority 2002, dated 2016):

What was measured:
[1] = tested on: cultured human mast cells (CHMC); experiment: CHMC low cell density ionomycin activation: tryptase assay; assay type: cell-based
[2] = tested on: cultured human mast cells (CHMC); experiment: CHMC low cell density IgE activation: tryptase assay; assay type: cell-based; conditions: anti-IgE
How it was run: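 Supernatant tryptase activity, assayed with substrate for 30 min at room temperature, served as the degranulation measure. Mast cells (1000-1500 per well depending on donor) sat 1 hr at 37° C in MT before a 30 min anti-IgE challenge at 37° C.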

CNC(=O)CCn1ncc2cc(Nc3ncc(F)c(Nc4cccc(O)c4)n3)ccc21 [R935305, 5-Fluoro-N4-(3-hydroxyphenyl)-N2-[1-[2(N-methylaminocarbonyl)ethyl]-indazoline-5-yl]-2,4-pyrimidinediamine]
IC50 [1]: > 10 µM
IC50 [2]: 0.495 µM

OCCCn1ncc2ccc(Nc3ncc(F)c(Nc4ccc5oc(CO)cc5c4)n3)cc21 [R935308, 5-Fluoro-N4-(2-hydroxymethylbenzofur-5-yl)-N2-[1-(3-hydroxypropyl)indazoline-6-yl]-2,4-pyrimidinediamine]
IC50 [1]: > 10 µM
IC50 [2]: 0.275 µM

COC(=O)c1ccc(Cn2cc3ccc(Nc4ncc(F)c(Nc5ccc(OC(C)C)cc5)n4)cc3n2)c(OC)c1 [R935338, 5-Fluoro-N4-(4-isopropoxyphenyl)-N2-[2-(2-methoxy-4-carbomethoxybenzyl)indazoline-6-yl]-2,4-pyrimidinediamine]
IC50 [1]: > 10 µM
IC50 [2]: 0.411 µM

Cn1ncc2cc(Nc3ncc(F)c(Nc4ccc(Cl)cc4)n3)ccc21 [R935351, N4-(4-Chlorophenyl)-5-fluoro-N2-(1-methyl-indazoline-5-yl)-2,4-pyrimidinediamine]
IC50 [1]: > 10 µM
IC50 [2]: > 10 µM

CCOC(=O)CCn1ncc2cc(Nc3ncc(F)c(Nc4ccc(Cl)cc4)n3)ccc21 [R935353, N4-(4-Chlorophenyl)-N2-[1-(2-ethoxycarbonylethyl)indazoline-5-yl]-5-fluoro-2,4-pyrimidinediamine]
IC50 [1]: > 10 µM
IC50 [2]: > 10 µM

Cn1ncc2cc(Nc3ncc(F)c(Nc4ccc(Cl)c(Cl)c4)n3)ccc21 [R935355, N4-(3,4-Dichlorophenyl)-5-fluoro-N2-(1-methylindazoline-5-yl)-2,4-pyrimidinediamine]
IC50 [1]: > 10 µM
IC50 [2]: > 10 µM

Cn1ncc2cc(Nc3ncc(F)c(Nc4ccc(F)c(F)c4)n3)ccc21 [R935358, N4-(3,4-Difluorophenyl)-5-fluoro-N2-(1-methylindazoline-5-yl)-2,4-pyrimidinediamine]
IC50 [1]: > 10 µM
IC50 [2]: > 10 µM

Cn1ncc2cc(Nc3ncc(F)c(Nc4ccc(OC(F)(F)F)c(Cl)c4)n3)ccc21 [R935359, N4-(3-chloro-4-trifluoromethoxyphenyl)-5-fluoro-N2-(1-methylindazoline-5-yl)-2,4-pyrimidinediamine]
IC50 [1]: > 10 µM
IC50 [2]: 1.03 µM

CCOC(=O)CCn1ncc2cc(Nc3ncc(F)c(Nc4cccc(OC(F)(F)F)c4)n3)ccc21 [R935360, N2-[1-(2-Ethoxycarbonylethyl)indazoline-5-yl]-5-fluoro-N4-(3-trifluoromethoxyphenyl)-2,4-pyrimidinediamine]
IC50 [1]: > 10 µM
IC50 [2]: 0.903 µM

CNC(=O)CCn1ncc2cc(Nc3ncc(F)c(Nc4cccc(OC(F)(F)F)c4)n3)ccc21 [R935361, 5-Fluoro-N2-[1-[2(N-methylaminocarbonyl)ethyl]indazoline-5-yl]-N4-(3-trifluoromethoxyphenyl)-2,4-pyrimidinediamine]
IC50 [1]: > 10 µM
IC50 [2]: 1.44 µM

OCCCn1ncc2cc(Nc3ncc(F)c(Nc4cccc(OC(F)(F)F)c4)n3)ccc21 [R935362, 5-Fluoro-N2-[1-(3-hydroxypropyl)indazoline-5-yl]-N4-(3-trifluoromethoxyphenyl)-2,4-pyrimidinediamine]
IC50 [1]: > 10 µM
IC50 [2]: 0.409 µM

Fc1cnc(Nc2ccc3[nH]ncc3c2)nc1Nc1cccc(OC(F)(F)F)c1 [R935364, 5-Fluoro-N2-(indazoline-5-yl)-N4-(3-trifluoromethoxyphenyl)-2,4-pyrimidinediamine]
IC50 [1]: > 10 µM
IC50 [2]: 0.563 µM

Fc1cnc(Nc2ccc3[nH]ncc3c2)nc1Nc1ccc(Cl)cc1 [R935365, N4-(4-Chlorophenyl)-5-fluoro-N2-(indazoline-5-yl)-2,4-pyrimidinediamine]
IC50 [1]: > 10 µM
IC50 [2]: 0.373 µM

Fc1cnc(Nc2ccc3[nH]ncc3c2)nc1Nc1ccc(OC(F)(F)F)c(Cl)c1 [R935366, N4-(3-Chloro-4-trifluoromethoxyphenyl)-5-fluoro-N2-(indazoline-5-yl)-2,4-pyrimidinediamine]
IC50 [1]: > 10 µM
IC50 [2]: 0.216 µM

Fc1cnc(Nc2ccc3cn[nH]c3c2)nc1Nc1ccc(OC(F)(F)F)c(Cl)c1 [R935368, N4-(3-Chloro-4-trifluoromethoxyphenyl)-5-fluoro-N2-(indazoline-6-yl)-2,4-pyrimidinediamine]
IC50 [1]: > 10 µM
IC50 [2]: 0.082 µM

Fc1cnc(Nc2ccc3[nH]ncc3c2)nc1Nc1ccc(Cl)c(Cl)c1 [R935371, N4-(3,4-Dichlorophenyl)-5-fluoro-N2-(indazoline-5-yl)-2,4-pyrimidinediamine]
IC50 [1]: > 10 µM
IC50 [2]: 0.794 µM

Fc1cnc(Nc2ccc3[nH]ncc3c2)nc1Nc1ccc2c(c1)OC(F)(F)O2 [R935373, N4-(3,4-Difluoromethylendioxyphenyl)-5-fluoro-N2-(indazoline-5-yl)-2,4-pyrimidinediamine]
IC50 [1]: > 10 µM
IC50 [2]: 0.274 µM

Fc1cnc(Nc2ccc3cn[nH]c3c2)nc1Nc1ccc2c(c1)OC(F)(F)O2 [R935374, N4-(3,4-Difluoromethylendioxyphenyl)-5-fluoro-N2-(indazoline-6-yl)-2,4-pyrimidinediamine]
IC50 [1]: > 10 µM
IC50 [2]: 0.356 µM

Cn1ncc2cc(Nc3ncc(F)c(Nc4ccc(Cl)nc4)n3)ccc21 [R935375, N4-(6-Chloro-3-pyridyl)-5-fluoro-N2-(1-methylindazoline-5-yl)-2,4-pyrimidinediamine]
IC50 [1]: > 10 µM
IC50 [2]: 10 µM

CNC(=O)CCn1ncc2cc(Nc3ncc(F)c(Nc4ccc(Cl)nc4)n3)ccc21 [R935378, N4-(6-Chloro-3-pyridyl)-5-fluoro-N2-[1-[2(N-methylaminocarbonyl)ethyl]indazoline-5-yl]-2,4-pyrimidinediamine]
IC50 [1]: > 10 µM
IC50 [2]: 0.566 µM

COc1ccc(Nc2ncc([N+](=O)[O-])c(Nc3ccc(OC)c(OC)c3)n2)cc1OC [R940089, N2,N4-Bis-(3,4-dimethoxyphenyl)-5-nitro-2,4-pyrimidinediamine]
IC50 ([1]; Homo sapiens, Mast cell): > 10 µM
IC50 ([2]; Homo sapiens, Mast cell): > 10 µM

CCOc1ccc(Nc2ncc([N+](=O)[O-])c(Nc3ccc(OCC)cc3)n2)cc1 [R940090, N2,N4-Bis-(4-ethoxyphenyl)-5-nitro-2,4-pyrimidinediamine]
IC50 ([1]; Homo sapiens, Mast cell): > 10 µM
IC50 ([2]; Homo sapiens, Mast cell): > 10 µM

CCOC(=O)COc1cccc(Nc2ncc(F)c(Nc3cc(C)c(O)c(C)c3)n2)c1 [R940253, N4-(3,5-Dimethyl-4-hydroxyphenyl)-N2-(3-ethoxycarbonylmethyleneoxyphenyl)-5-fluoro-2,4-pyrimidinediamine]
IC50 [1]: > 10 µM
IC50 [2]: 1.01 µM

Cc1cc(Nc2nc(Nc3cccc(OCC(=O)N4CCOCC4)c3)ncc2F)cc(C)c1O [R940254, N4-(3,5-Dimethyl-4-hydroxyphenyl)-5-fluoro-N2-[3-(N-morpholino)carbonylmethyleneoxyphenyl]-2,4-pyrimidinediamine]
IC50 [1]: > 10 µM
IC50 [2]: 0.986 µM

COc1ccc(Nc2nc(NC3CCN(Cc4ccccc4)CC3)ncc2F)cc1OC [R940263, N2-[4-(N-Benzylpiperidino)]-N4-(3,4-dimethoxyphenyl)-5-fluoro-2,4-pyrimidinediamine]
IC50 [1]: > 10 µM
IC50 [2]: > 10 µM

Oc1cccc(Nc2nc(NC3CCN(Cc4ccccc4)CC3)ncc2F)c1 [R940264, N2-[4-(N-Benzylpiperidino)]-5-fluoro-N4-(3-hydroxyphenyl)-2,4-pyrimidinediamine]
IC50 [1]: > 10 µM
IC50 [2]: 10 µM
